Measurements published in PubChem BioAssay (NCI).
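96-well plates; 48 h exposure; 5 concentrations. Endpoints by linear interpolation between flanking doses. Not reached: highest tested concentration assigned. The concentration for 50% growth inhibition is given as GI50. TGI marks complete inhibition of growth.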

Experiments:
Test in all cases: growth of human tumour cells (NCI), 48 h
SF-295 CNS = test system: SF-295 CNS
M14 melanoma = test system: M14 melanoma
T-47D breast = test system: T-47D breast
HOP-62 NSCLC = test system: HOP-62 NSCLC
A498 renal = test system: A498 renal
HT29 colon = test system: HT29 colon
UACC-257 melanoma = test system: UACC-257 melanoma
NCI-H226 lung = test system: NCI-H226 lung
NCI/ADR-RES ovarian = test system: NCI/ADR-RES ovarian
786-0 renal = test system: 786-0 renal
K-562 leukemia = test system: K-562 leukemia
OVCAR-4 ovarian = test system: OVCAR-4 ovarian
LOX IMVI melanoma = test system: LOX IMVI melanoma
MCF7 breast = test system: MCF7 breast
KM12 colon = test system: KM12 colon
NCI-H460 lung = test system: NCI-H460 lung
SK-MEL-2 melanoma = test system: SK-MEL-2 melanoma
HCT-15 colon = test system: HCT-15 colon

| SMILES | TGI (SF-295 CNS) [µM] | TGI (M14 melanoma) [µM] | TGI (T-47D breast) [µM] | TGI (HOP-62 NSCLC) [µM] | TGI (A498 renal) [µM] | TGI (HT29 colon) [µM] | TGI (UACC-257 melanoma) [µM] | TGI (NCI-H226 lung) [µM] | TGI (NCI/ADR-RES ovarian) [µM] | TGI (786-0 renal) [µM] | TGI (K-562 leukemia) [µM] | TGI (OVCAR-4 ovarian) [µM] | TGI (LOX IMVI melanoma) [µM] | TGI (MCF7 breast) [µM] | TGI (KM12 colon) [µM] | TGI (NCI-H460 lung) [µM] | TGI (SK-MEL-2 melanoma) [µM] | TGI (HCT-15 colon) [µM] | GI50 (NCI/ADR-RES ovarian) [µM] | GI50 (NCI-H226 lung) [µM] |
| --- | --- | --- | --- | --- | --- | --- | --- | --- | --- | --- | --- | --- | --- | --- | --- | --- | --- | --- | --- | --- |
| CC1=NN(c2ccccc2)C2(C1)C(Cl)C(=O)N2c1nc2ccccc2s1 (stereo not given) | > 100 | > 100 | > 100 | 82.6 | > 100 | > 100 | > 100 | 85.7 | 68.5 | > 100 | > 100 | > 100 | 26.3 | > 100 | > 100 | > 100 | 78.1 | > 100 | – | – |
| CCOC(=O)CC[C@H](N)C(=O)N[C@@H](Cc1ccc(N(CCCl)CCCl)cc1)C(=O)OCC | 14.8 | 1.59 | 8.49 | 9.94 | 42 | 4.19 | 5.09 | 28.8 | 21.1 | 2.51 | > 33 | 1.41 | 2.94 | 15.5 | 11.6 | 2.48 | 5.28 | 3.86 | 3.7 | – |
| O=S(=O)(O)CCSSCCS(=O)(=O)O | > 1000 | > 1000 | > 1000 | > 1000 | > 1000 | > 1000 | > 1000 | > 1000 | > 1000 | > 1000 | > 1000 | > 1000 | > 1000 | > 1000 | > 1000 | > 1000 | > 1000 | > 1000 | – | – |
| COC(=O)c1ccccc1/C=C1\Cc2c(C)c3c(c(C)c2C1=O)CCC3 | > 100 | > 100 | > 100 | > 100 | > 100 | > 100 | > 100 | > 100 | > 100 | > 100 | > 100 | > 100 | > 100 | > 100 | > 100 | > 100 | > 100 | > 100 | – | – |
| C=CCN1C(=O)/C(=C/c2ccc(Cl)cc2)N=C1SC/C=C/C | > 100 | > 100 | > 100 | > 100 | > 100 | > 100 | > 100 | > 100 | > 100 | > 100 | > 100 | > 100 | > 100 | 84.3 | > 100 | > 100 | 68.2 | > 100 | – | – |
| CC1=CC[C@H](C[C@H](C#CCCCC2OCCO2)O[Si](C(C)C)(C(C)C)C(C)C)C(=O)CC1 | > 100 | > 100 | > 100 | > 100 | > 100 | > 100 | > 100 | > 100 | > 100 | > 100 | > 100 | > 100 | > 100 | > 100 | > 100 | > 100 | > 100 | > 100 | – | – |
| NC1C/C(=N\O)c2c(Cl)sc(Cl)c21 (stereo not given) | 91.1 | 34.1 | 39.7 | 37 | 59.8 | 54.6 | 31.2 | 41.4 | 67.3 | 33.4 | > 100 | 38.4 | 15.9 | 27.5 | 25.5 | 43.3 | 36.1 | 33 | – | – |
| O=C1c2ccccc2-c2nnc(-c3ccc([N+](=O)[O-])cc3)cc21 | > 10 | > 10 | > 10 | > 10 | > 10 | > 10 | > 10 | > 10 | > 10 | > 10 | > 10 | > 10 | > 10 | > 10 | > 10 | > 10 | > 10 | > 10 | – | – |
| C[N+]12CCCCC1C(COc1cccc3cccnc13)CCC2 (stereo not given) | > 100 | > 100 | > 100 | > 100 | > 100 | > 100 | > 100 | > 100 | > 100 | > 100 | > 100 | > 100 | > 100 | > 100 | > 100 | > 100 | > 100 | > 100 | – | – |
| CC(NC(=O)OCc1ccccc1)NC(=O)OC(C)(C)C (stereo not given) | > 100 | > 100 | > 100 | > 100 | > 100 | > 100 | > 100 | > 100 | > 100 | > 100 | > 100 | > 100 | > 100 | > 100 | > 100 | > 100 | > 100 | > 100 | – | – |
| O=c1[nH]c2cccc([N+](=O)[O-])c2c(=O)n1-c1ccc(Cl)cc1 | 12.2 | 29.2 | 26.8 | 61 | 30.6 | 26.1 | 29.6 | 30.1 | 43.6 | 55.9 | 34.9 | 16.4 | 59.5 | 25.5 | 34.4 | 25.8 | 25.6 | 30.2 | – | – |
| COc1cc(C(=O)NNC(=O)c2cc(Br)ccc2NC(=O)c2cccs2)cc(OC)c1OC | 48.9 | 59.8 | > 100 | 42.2 | 55 | 41.1 | 56.9 | 36.5 | 62 | 45.4 | 11.9 | 51.4 | 37.1 | 52.1 | > 100 | 73.6 | 44.9 | 62.3 | – | – |
| CC(C)OC(=O)c1ccc(NCC2=CC(=O)C=CC2=O)cc1 | > 83.1 | 28.3 | 7.95 | > 100 | 90.3 | 32.7 | 27.2 | > 100 | 30.7 | 28.5 | 7.39 | 26.2 | 26.2 | 27.3 | 41.8 | > 100 | 31.5 | 25.5 | – | – |
| COc1nn(Cc2ccccn2)c2ccc([N+](=O)[O-])cc12 | > 100 | > 100 | > 100 | > 100 | > 100 | > 100 | > 100 | > 100 | > 100 | > 100 | > 100 | > 100 | > 100 | > 100 | > 100 | > 100 | > 100 | > 100 | – | – |
| CCCN(CCc1ccc(-c2ccccc2)cc1)CCc1ccc2n[nH]nc2c1 | 27.5 | 25.4 | 19.2 | 26.3 | 36.2 | 23.6 | 17.1 | 36.7 | 47 | 24.9 | 18.4 | 33.3 | 28.6 | > 51.2 | 34.1 | 22.1 | 33.4 | 21.4 | – | – |
| NC(=O)NC1NC(=O)NC1=O (stereo not given) | > 100 | > 100 | > 100 | > 100 | > 100 | > 100 | > 100 | > 100 | > 100 | > 100 | > 100 | > 100 | > 100 | > 100 | > 100 | > 100 | > 100 | > 100 | – | – |
| OC1=C2c3ccccc3NC2Oc2cc(F)ccc21 (stereo not given) | 29.5 | 31.8 | 68.1 | 33.2 | 32.4 | 38 | 41.4 | 89.5 | 47.3 | 29.9 | 48.5 | 50.6 | 39.3 | > 100 | 31.2 | 38.5 | 41.8 | 37.3 | – | – |
| O=C1c2ccccc2C(=O)C2NC(CCCCCSSCCCCCC3=NC4C(=O)c5ccccc5C(=O)C4N3)=NC12 (stereo not given) | > 100 | > 100 | > 100 | > 100 | > 100 | > 100 | > 100 | > 100 | > 100 | > 100 | > 100 | > 100 | > 100 | > 100 | > 100 | > 100 | > 100 | > 100 | – | – |
| Cc1cc(S(=O)(=O)Nc2nc(N)nc(N3N=CCC3C)n2)c(SCC(=O)O)cc1Cl (stereo not given) | > 10 | > 10 | > 10 | > 10 | > 10 | > 10 | > 10 | > 10 | > 10 | > 10 | > 10 | > 10 | > 10 | > 10 | > 10 | > 10 | > 10 | > 10 | – | – |
| Cn1c(-c2cccs2)cc(-c2cccs2)c1-c1cccs1 | > 100 | > 100 | > 51.8 | > 100 | > 100 | > 100 | > 100 | > 100 | > 100 | > 100 | > 100 | > 100 | > 100 | > 100 | > 100 | > 100 | > 100 | > 100 | – | – |
| O=C1CC(Br)c2c(Br)sc(Br)c21 (stereo not given) | 58.7 | 29.2 | 38.3 | 39 | > 100 | 30.4 | 29.1 | 54.6 | > 100 | 29.9 | 29.9 | 33.3 | 27.4 | 32.4 | 49 | 31.4 | 35.8 | 34.6 | – | – |
| CC1=NN(c2cccc(S(=O)(=O)O)c2)C2(C1)C(Cl)C(=O)N2c1nc2ccccc2s1 (stereo not given) | 28 | 24.6 | 40.4 | 17.9 | 34 | 22.2 | 28.3 | 22.2 | 26.8 | 11.7 | > 41.4 | 14.9 | 3.77 | 25 | 27.4 | 26.3 | 15.4 | 17.8 | – | – |
| COc1cc2c(cc1C)NC(=O)/C2=C/c1cccnc1 | 40.5 | 37.5 | 8.13 | 30.5 | 24.6 | > 100 | 27.7 | 24.3 | 42 | > 52.5 | 40.2 | 56.4 | > 53.8 | 32.3 | 29.1 | 35.4 | 46.5 | > 78 | – | 10.9 |
| COC(=O)/C(C)=N/NC(=S)SC | > 100 | 57 | 80.6 | > 100 | > 100 | > 100 | > 100 | > 100 | > 100 | > 100 | > 100 | > 100 | > 100 | > 100 | > 100 | > 100 | > 100 | > 100 | – | – |
| O=C(CSc1ncccn1)N/N=C/c1ccccc1OCc1ccccc1 | 50.9 | > 100 | 70.7 | 83.1 | 71.8 | > 100 | 53.5 | 55.1 | > 100 | > 100 | > 100 | > 100 | 36.4 | 43.9 | > 100 | 94.9 | 47.6 | 65.1 | – | – |
| CN1CCCC2C(c3ccccc3)C(C3=NCCCC3)C(c3ccccc3)CC21 (stereo not given) | > 100 | 40.4 | > 100 | > 100 | > 100 | 67.6 | 35 | > 100 | > 100 | > 100 | 37.6 | > 100 | 55.2 | > 100 | > 100 | > 100 | > 100 | > 100 | – | – |
